Patent US11214538B2, “Farnesoid X receptor agonists and uses thereof” (Metacrine, Inc., priority 2015, dated 2022)
pEC50: −log10 of the molar value.

Assays:
hFXR [1] = molecular target: T1, hFXR (Homo sapiens, UniProt Q96RI1); assay: In Vitro FXR Assay (TK), luciferase reporter in transfected CV-1 cells; format: cell-based; details: CV-1 cells transfected with hFXR, hRXR, TK-ECRE-luc; 18 hrs incubation; luminescence; compounds with a maximum efficacy of <25% of the Fexaramine control classified as '+'
T1 construct: expressed in transfected cells; host or cells: CV-1 cells
T1 sequence (Q96RI1 1-486): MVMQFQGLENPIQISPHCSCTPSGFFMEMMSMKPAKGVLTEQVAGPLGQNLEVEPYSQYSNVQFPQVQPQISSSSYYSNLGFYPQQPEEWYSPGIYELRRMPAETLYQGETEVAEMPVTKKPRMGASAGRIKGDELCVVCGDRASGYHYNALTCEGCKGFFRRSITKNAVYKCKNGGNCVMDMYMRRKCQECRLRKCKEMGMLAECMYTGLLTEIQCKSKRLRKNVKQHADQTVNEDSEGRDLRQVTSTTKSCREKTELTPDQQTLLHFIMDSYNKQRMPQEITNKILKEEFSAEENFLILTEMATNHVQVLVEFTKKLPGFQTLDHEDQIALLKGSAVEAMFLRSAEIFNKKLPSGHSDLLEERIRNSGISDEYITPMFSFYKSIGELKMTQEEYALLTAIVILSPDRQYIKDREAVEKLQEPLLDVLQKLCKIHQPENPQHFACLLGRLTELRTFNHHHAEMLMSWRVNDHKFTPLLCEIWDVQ
T1 sequence (P19793 1-462 partner): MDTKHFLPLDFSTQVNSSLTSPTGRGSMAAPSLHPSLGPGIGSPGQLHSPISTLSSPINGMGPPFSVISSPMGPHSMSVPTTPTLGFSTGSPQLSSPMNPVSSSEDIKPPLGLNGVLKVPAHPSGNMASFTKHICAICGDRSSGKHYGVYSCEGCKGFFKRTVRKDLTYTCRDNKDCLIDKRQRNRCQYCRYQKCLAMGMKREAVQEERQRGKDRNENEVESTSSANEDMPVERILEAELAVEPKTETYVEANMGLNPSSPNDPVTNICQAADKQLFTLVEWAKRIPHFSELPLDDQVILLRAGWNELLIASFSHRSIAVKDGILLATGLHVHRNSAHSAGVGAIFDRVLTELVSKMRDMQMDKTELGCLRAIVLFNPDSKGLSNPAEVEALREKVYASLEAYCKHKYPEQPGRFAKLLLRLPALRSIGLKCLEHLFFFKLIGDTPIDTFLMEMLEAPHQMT
Description: Example B-2: In Vitro FXR Assay (TK)
CV-1 cells were seeded at a density of 2,000,000 cells in a T175 flask with DMEM+10% charcoal double-stripped FBS and incubated at 37° C. in 5% CO2 for 18 h (O/N).
After 18 h of incubation, the medium in the T175 flask was changed with fresh DMEM+10% charcoal super-stripped serum. In a polypropylene tube, 2500 μL OptiMEM (Life Technologies, Cat #31985-062) was combined with expression plasmids for hFXR, hRXR, TK-ECRE-luc and pCMX-YFP. The tube was then briefly vortexed and incubated at room temperature for 5 minutes. Transfection reagent (X-tremeGENE HP from Roche, Cat #06 366 236 001) was added to the OptiMEM/plasmid mixture vortexed and incubated at room temperature for 20 minutes. Following incubation, the transfection reagent/DNA mixture complex was added to cells in the T175 flask and the cells were incubated at 37° C. in 5% CO2 for 18 h (O/N).
Compounds were serially diluted in DMSO and added to transfected CV-1 cells. The cells were then incubated for 18 hrs. The next day cells were lysed and examined for luminescence.

hFXR [2] = molecular target: T1, hFXR; assay: In Vitro FXR Assay (PGL3), luciferase reporter in transfected CV-1 cells; format: cell-based; details: CV-1 cells transfected with hFXR, hRXR, PGL3-ECRE*6-luc; 18 hrs incubation; luminescence
Description: Example B-1: In Vitro FXR Assay (PGL3)
CV-1 cells were seeded at a density of 2,000,000 cells in a T175 flask with DMEM+10% charcoal double-stripped FBS and incubated at 37° C. in a 5% CO2 for 18 h (O/N).
After 18 h of incubation, the medium in the T175 flask was changed with fresh DMEM+10% charcoal super-stripped serum.
To prepare the transfection reaction mixture, the transfection reagent (X-tremeGENE HP from Roche, Cat #06 366 236 001) was added in to a 1.5 mL microcentrifuge tube labelled “A” at a ratio of 1:3 (DNA in g: transfection reagent in μL). OptiMEM medium (Life Technologies, Cat #31985-062) was added accordingly to provide a total volume of 1 mL. The transfection reaction mixture was then briefly vortexed and incubated at room temperature for 5 minutes.
In a separate 1.5 mL microcentrifuge tube labelled “B”, 100 μL OptiMEM and plasmids XPD90Gal pCMXhFXRfl, pCMXhRXRfl+PGL3-ECRE*6-luc+CMX-YFP in the ratio 2 g: 2 g:18 g:3 g were added. This microcentrifuge tube “B” was then briefly vortexed and incubated at room temperature for 5 minutes.
The total volume in tube labelled “A” was then transferred in to tube labelled “B.” The mixture was then briefly vortexed and the transfection:DNA complex was then incubated for about 15-20 minutes at room temperature.
Following incubation, the transfection reagent/DNA mixture complex was then added to cells in the T175 flask and the cells were incubated at […] (O/N) at 37° C. in 5% CO2.
In a 96 well plate, a half logarithmic serial dilution was prepared. OptiMEM was used as the diluent. Using any of one of the compounds described herein, a compound stock solution of 10 mM was prepared. An initial 1:100 dilution was made into the first well for a final concentration of 100 μM. The final concentrations in the 96-well plate was prepared by using a multichannel pipette to transfer 5 μL of the diluted compound to 384-well plate in quadruplicate.
Cells in T175 flask were trypsinized and cells were resuspending in 40 mL phenol red free DMEM+10% charcoal super-stripped FBS. Typically, one T175 flask was sufficient to seed two 384 well plates. CV-1 cells were seeded at 45 μL cell suspension/well using a multichannel pipet or a 384 multidrop dispenser. The cells were then incubated for 18 hrs, overnight.
After removing the plates from the incubator, the medium was flicked out of plate and 384 well plate was turned upside down onto paper towel. The remaining medium was gently tapped out. 15 μL lysis buffer was then added to each well using a multichannel pipet or a 384 well multi-drop dispenser. After incubation for 10 minutes at room temperature on shaker, 30 μL Luciferase buffer was added to each well. Luminescence counts were taken immediately using the Perkin Elmer Envision.
The ability of the compounds disclosed herein to […] FXR activity was quantified and the respective EC50 value was determined. Fex=fexaramine.

SMILES	pEC50 (hFXR [1])	Cmpd/Fex (ratio of the EC50 for the test compound relative to the EC50 of the Fexaramine control) (hFXR [2])
CN(C)CCNc1cccc(N(Cc2ccc(-c3ccc(N(C)C)cc3)cc2)C(=O)C2CCCCC2)c1 [Compound 5, N-((4′-(Dimethylamino)-[1,1′-biphenyl]-4-yl)methyl)-N-(3-((2-(dimethylamino)ethyl)amino)phenyl) cyclohexanecarboxamide]		+ (‘+’ means Cmpd/Fex >100)
CCC/C=C/c1cccc(N(Cc2ccc(-c3ccc(N(C)C)cc3)cc2)C(=O)C2CCCCC2)c1 [Compound 7, (E)-N-((4′-(dimethylamino)-[1,1′-biphenyl]-4-yl)methyl)-N-(3-(pent-1-en-1-yl)phenyl)cyclohexanecarboxamide]	5.00 to 5.52	++ (‘++’ means Cmpd/Fex >10 & <100)
CN(C)c1ccc(-c2ccc(CN(C(=O)C3CCCCC3)c3cccc(CN4CCCC4=O)c3)cc2)cc1 [Compound 8, N-((4′-(Dimethylamino)-[1,1′-biphenyl]-4-yl)methyl)-N-(3-((2-oxopyrrolidin-1-yl)methyl)phenyl)cyclohexanecarboxamide]		+ (‘+’ means Cmpd/Fex >100)
COC(=O)CNc1cccc(N(Cc2ccc(-c3ccc(N(C)C)cc3)cc2)C(=O)C2CCCCC2)c1 [Compound 9, Methyl 2-((3-(N-((4′-(dimethylamino)-[1,1′-biphenyl]-4-yl)methyl)cyclohexanecarboxamido)phenyl)amino)acetate]	≥ 5.52	++ (‘++’ means Cmpd/Fex >10 & <100)
COC(=O)CN(C)c1cccc(N(Cc2ccc(-c3ccc(N(C)C)cc3)cc2)C(=O)C2CCCCC2)c1 [Compound 10, Methyl 2-((3-(N-((4′-(dimethylamino)-[1,1′-biphenyl]-4-yl)methyl)cyclohexanecarboxamido)phenyl)(methyl)amino)acetate]		+ (‘+’ means Cmpd/Fex >100)
CNC(=O)/C=C/c1cccc(N(Cc2ccc(-c3ccc(N(C)C)cc3)cc2)C(=O)C2CCCCC2)c1 [Compound 12, (E)-N-((4′-(Dimethylamino)-[1,1′-biphenyl]-4-yl)methyl)-N-(3-(3-(methylamino)-3-oxoprop-1-en-1-yl)phenyl)cyclohexanecarboxamide]		++ (‘++’ means Cmpd/Fex >10 & <100)
CN(C)C(=O)/C=C/c1cccc(N(Cc2ccc(-c3ccc(N(C)C)cc3)cc2)C(=O)C2CCCCC2)c1 [Compound 13, (E)-N-(3-(3-(Dimethylamino)-3-oxoprop-1-en-1-yl)phenyl)-N-((4′-(dimethylamino)-[1,1′-biphenyl]-4-yl)methyl)cyclohexanecarboxamide]	≥ 5.52	+ (‘+’ means Cmpd/Fex >100)

Now from value to compound:

pEC50 (hFXR [1])	Cmpd/Fex (ratio of the EC50 for the test compound relative to the EC50 of the Fexaramine control) (hFXR [2])	SMILES
≥ 5.52	+++ (‘+++’ means Cmpd/Fex <10)	COc1cncc(-c2cccc(N(Cc3ccc(-c4ccc(N(C)C)cc4)cc3)C(=O)C3CCCCC3)c2)c1 [Compound 1, N-((4′-(Dimethylamino)-[1,1′-biphenyl]-4-yl)methyl)-N-(3-(5-methoxypyridin-3-yl)phenyl)cyclohexanecarboxamide]
	++ (‘++’ means Cmpd/Fex >10 & <100)	COc1cccc(-c2cccc(N(Cc3ccc(-c4ccc(N(C)C)cc4)cc3)C(=O)C3CCCCC3)c2)c1 [Compound 2, N-((4′-(Dimethylamino)-[1,1′-biphenyl]-4-yl)methyl)-N-(3′-methoxy-[1,1′-biphenyl]-3-yl)cyclohexanecarboxamide]
	+++ (‘+++’ means Cmpd/Fex <10)	COc1cc(-c2cccc(N(Cc3ccc(-c4ccc(N(C)C)cc4)cc3)C(=O)C3CCCCC3)c2)ccn1 [Compound 3, N-((4′-(Dimethylamino)-[1,1′-biphenyl]-4-yl)methyl)-N-(3-(2-methoxypyridin-4-yl)phenyl)cyclohexanecarboxamide]
5.00 to 5.52	+++ (‘+++’ means Cmpd/Fex <10)	COCCNc1cccc(N(Cc2ccc(-c3ccc(N(C)C)cc3)cc2)C(=O)C2CCCCC2)c1 [Compound 4, N-((4′-(dimethylamino)-[1,1′-biphenyl]-4-yl)methyl)-N-(3-((2-methoxyethyl)amino)phenyl)cyclohexanecarboxamide]
	+ (‘+’ means Cmpd/Fex >100)	CC(C)CNc1cccc(N(Cc2ccc(-c3ccc(N(C)C)cc3)cc2)C(=O)C2CCCCC2)c1 [Compound 6, N-((4′-(Dimethylamino)-[1,1′-biphenyl]-4-yl)methyl)-N-(3-(isobutylamino)phenyl) cyclohexanecarboxamide]
	+ (‘+’ means Cmpd/Fex >100)	COC(=O)NCc1cccc(N(Cc2ccc(-c3ccc(N(C)C)cc3)cc2)C(=O)C2CCCCC2)c1 [Compound 11, Methyl 3-(N-((4′-(dimethylamino)-[1,1′-biphenyl]-4-yl)methyl)cyclohexanecarboxamido)benzylcarbamate]
	++ (‘++’ means Cmpd/Fex >10 & <100)	C/C=C\c1cccc(N(Cc2ccc(-c3ccc(N(C)C)cc3)cc2)C(=O)C2CCCCC2)c1 [Compound 17, (Z)-N-((4′-(Dimethylamino)-[1,1′-biphenyl]-4-yl)methyl)-N-(3-(prop-1-en-1-yl)phenyl)cyclohexanecarboxamide]
	+ (‘+’ means Cmpd/Fex >100)	CN(C)c1ccc(-c2ccc(CN(C(=O)C3CCCCC3)c3cccc(Oc4ccccc4)c3)cc2)cc1 [Compound 19, N-((4′-(Dimethylamino)-[1,1′-biphenyl]-4-yl)methyl)-N-(3-phenoxyphenyl)cyclohexanecarboxamide]
